Common to all, as to type: binding
Experiment [1] deals with T1, AF9 YEATS domain (Homo sapiens, UniProt P42568).
T1 construct: His-AF9 (1-138); His (N); made in house; host or cells: E. coli Rosetta
T1 sequence (P42568 1-138): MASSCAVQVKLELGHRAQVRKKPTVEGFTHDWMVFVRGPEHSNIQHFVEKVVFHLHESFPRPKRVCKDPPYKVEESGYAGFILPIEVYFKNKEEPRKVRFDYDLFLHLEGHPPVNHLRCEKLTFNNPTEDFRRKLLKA
As to the kind of experiment: Photo-cross-linking-based competition assay (photoaffinity probe, click chemistry, in-gel fluorescence). The note with it: for preliminary screening of competitors: inhibitory activity on AF9 YEATS domain: fluorescent signal intensity at 0.3 μM compared with peptide control; for IC50: competition with photoaffinity probe, in-gel fluorescence. How it is done:
Mobile phase used were water with 0.1% trifluoroacetic acid (buffer A) and 90% acetonitrile in water with 0.1% trifluoroacetic acid (buffer B). The purity (>95%) and identity of peptides were confirmed by LC-MS. The inhibitory activities of the inhibitors were determined by a photo-cross-linking-based competition assay. […] The reactions were incubated for 1 h at r.t . . . . The reactions were quenched by adding 5 volumes of ice-cold acetone and placed at −20° C. overnight to precipitate proteins. After protein precipitation, samples were centrifuged at 6000×g for 5 min at 4° C. The supernatant was discarded and the pellet was washed with ice-cooled methanol twice and air-dried for 10 min. […] Samples were then resolved by SDS-PAGE. The labeled proteins were visualized by scanning the gel on a Typhoon 9410 variable mode imager (excitation 532 nm, emission filter 580 nm). A photo-cross-linking based method was used in this study to estimate inhibitory activity (FIG. 28). This method requires the use of a photoaffinity probe. The probe (probe 1 (SEQ ID NO:48), see below) is derived from a crotonylated peptide, ligand of the protein, carrying a photo-cross-linker and a terminal alkyne as bioorthogonal. The YEATS domain is incubated and bound to the probe through Kcr-dependent recognition. Upon UV-irradiation, the photo-cross-linker is activated and rapidly cross-linked to the protein, converting the non-covalent protein-probe interaction into a covalent linkage. The probe-labeled protein is subsequently conjugated to an azide-functionalized fluorescence dye (for example, rhodamine-N3, Rho-N3) via Cu(I)-catalyzed azide-alkyne cycloaddition (CuAAC, or “click” chemistry). After SDS-PAGE, the protein can be visualized by in-gel fluorescence scanning. If photo-cross-linking of the YEATS domain with photoaffinity probe is performed in the presence of an inhibitor, which occupies the Kcr binding pocket of the YEATS domain and thus inhibits the protein-probe interaction, the percentage of the YEATS domain in the sample that is labeled by the probe will be reduced. The in-gel fluorescence intensity detected will also be decreased. By varying the concentration of inhibitor added in the sample and quantifying the resulting fluorescence intensities, a competition curve of the inhibitor toward the protein-probe interaction will be obtained, which can be used to estimate the IC50 value. Due to the covalent nature of photo-cross-linking, weak protein-protein interactions can be captured and eventually visualized. The protein concentration used in the assay can be as low as several nanograms per microliter, while the fluorescence signal can still be robustly detected and quantified.

Experiment [2] has as its target T1, AF9 YEATS domain. In words: Isothermal titration calorimetry (ITC). The note with it: for Kd / N (sites) / ΔS / ΔH: ITC; for binding enhancement over the native crotonyl group: ITC Kd ratio; for ΔH: Table 3. On the procedure: ^1H and ^13C NMR spectra were recorded on Bruker UltraShield 400 or 600 MHz spectrometers and were calibrated using residual undeuterated solvent as an internal reference. Chemical shifts were reported in ppm, and coupling constant J was reported in Hz. Peptides were analyzed by LC-MS with an Agilent 1260 Infinity HPLC system connected to a Thermo Finnigan LCQ DecaXP MS detector. Peptides were purified on a preparative HPLC system with Waters 2535 Quaternary Gradient Module, Waters 515 HPLC pump, Waters SFO System Fluidics Organizer, and Waters 2767 Sample Manager. Photo-cross-linking was performed with an ENF-260C/FE hand-hang UV lamp (Spectroline). In-gel fluorescence scanning was performed using a Typhoon 9410 variable mode imager from GE Healthcare Life Sciences (excitation 532 nm, emission 580 nm). Images of Coomassie blue staining were acquired by MyECL Imager from Thermo Scientific. All images were processed by ImageJ software (National Institutes of Health), and contrast was adjusted appropriately. ITC experiments were performed with a MicroCal iTC200 titration calorimeter (MicroCal). IC50 and dissociation constants were fit with Origin 7.0 software package (OriginLab).
To further validate the reliability of the results obtained from the photo-cross-linking-based competition assay, we performed isothermal titration calorimetry (ITC) to determine the direct binding affinities of the inhibitors toward the AF9 YEATS domain. […] The ITC measurements were in agreement with the IC50 data, indicating the reliability of the results obtained from the photo-cross-linking-based competition assay.

In the next experiment the target is T2, ENL YEATS domain (Homo sapiens, UniProt Q03111).
T2 construct: His-SUMO-ENL (1-138); His (N); SUMO (N); made in house; host or cells: E. coli Rosetta
T2 sequence (Q03111 1-138): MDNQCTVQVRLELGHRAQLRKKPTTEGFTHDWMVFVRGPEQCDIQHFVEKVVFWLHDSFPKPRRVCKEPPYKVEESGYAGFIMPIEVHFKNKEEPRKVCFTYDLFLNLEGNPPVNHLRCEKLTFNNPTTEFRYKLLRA
In words: Photo-cross-linking-based competition assay. Conditions: competition with photoaffinity probe, in-gel fluorescence.

Entries after “also recorded” stand apart in the source; their conditions may differ. Residues, ends and D or L forms follow the SMILES beside them. *: point of attachment. Oxazole(5-CO) = O=C(c1cnco1)*; Crotonyl(E) = C/C=C/C(=O)*; 2Furoyl = O=C(c1ccco1)*; Cbz = O=C(OCc1ccccc1)*; X1 = O=C(c1ccoc1)*

As for “43 (Cbz-QTAKK-NH2; not fully specified (residue 5); also: K5: modified crotonyl group with attached furancarbonyl side chain) [Compound 43]”, the “preliminary screening of competitors: inhibitory activity on AF9 YEATS domain” value with AF9 YEATS domain [1] was “interact with the AF9 YEATS domain weakly”.

As to “45 (Cbz-QTAQK-NH2; not fully specified (residue 5); also: K5: modified crotonyl group with attached furancarbonyl side chain) [Compound 45]”, in the experiment with AF9 YEATS domain [1], the “preliminary screening of competitors: inhibitory activity on AF9 YEATS domain” value is “interact with the AF9 YEATS domain weakly”.

“65 (Cbz-NTARK-NH2; not fully specified (residue 5); also: K5: modified crotonyl group with attached furancarbonyl side chain) [Compound 65]”: the “preliminary screening of competitors: inhibitory activity on AF9 YEATS domain” value with AF9 YEATS domain [1] is reported as “activity of inhibitor drops”.

For orientation: IC50 means the concentration at which inhibition is half-maximal. The Kd is the equilibrium constant for the complex coming apart. `C[C@H](NC(=O)[C@@H](NC(=O)[C@H](CCC(N)=O)NC(=O)[C@@H](N)CCCCN)[C@@H](C)O)C(=O)N[C@@H](CCCNC(=N)N)C(=O)N[C@@H](CCCCNC(=O)c1ccco1)C(=O)N[C@@H](CO)C(=O)N[C@H](C(=O)NCC(=O)NCC(N)=O)[C@@H](C)O` [Compound 7] (H-KQTARK(2Furoyl)STGG-NH2) had an IC50 at AF9 YEATS domain [1] of 1300 nM. At AF9 YEATS domain [2], binding was characterised by a dissociation constant (Kd) of 3300 nM, the “N (sites)” value is 0.91 ± 0.01 sites, the ΔS is −15.9 cal/mol/deg and the “binding enhancement over the native crotonyl group” value came to 4.5 fold. On AF9 YEATS domain [2], this compound returned a ΔH of -12.23 ± 0.11 kcal/mol.

As for `C[C@H](NC(=O)[C@@H](NC(=O)[C@H](CCC(N)=O)NC(=O)[C@@H](N)CCCCN)[C@@H](C)O)C(=O)N[C@@H](CCCNC(=N)N)C(=O)N[C@@H](CCCCNC(=O)c1ccoc1)C(=O)N[C@@H](CO)C(=O)N[C@H](C(=O)NCC(=O)NCC(N)=O)[C@@H](C)O` [Compound 8] (H-KQTARK(X1)STGG-NH2), the IC50 on AF9 YEATS domain [1] was 1700 nM.

The compound `C[C@H](NC(=O)[C@@H](NC(=O)[C@H](CCC(N)=O)NC(=O)[C@@H](N)CCCCN)[C@@H](C)O)C(=O)N[C@@H](CCCNC(=N)N)C(=O)N[C@@H](CCCCNC(=O)c1cnco1)C(=O)N[C@@H](CO)C(=O)N[C@H](C(=O)NCC(=O)NCC(N)=O)[C@@H](C)O` [Compound 13] (H-KQTARK(Oxazole(5-CO))STGG-NH2) yielded a 50% inhibitory concentration (IC50) on AF9 YEATS domain [1] of 740 nM. Besides, on AF9 YEATS domain [2], the affinity, expressed as Kd, was 1000 nM; the “N (sites)” value worked out at 1.04 ± 0.02 sites; the ΔS was −13.8 cal/mol/deg; the “binding enhancement over the native crotonyl group” value worked out at 14.8 fold. For the same compound, the ΔH on AF9 YEATS domain [2] was -12.29 ± 0.376 kcal/mol.

At AF9 YEATS domain [1], `C[C@H](NC(=O)[C@@H](NC(=O)[C@@H](N)CCC(N)=O)[C@@H](C)O)C(=O)N[C@@H](CCCNC(=N)N)C(=O)N[C@@H](CCCCNC(=O)c1ccco1)C(N)=O` [Compound 24] displayed an IC50 of 4500 nM.

In turn, `C[C@H](NC(=O)[C@@H](NC(=O)[C@H](CCC(N)=O)NC(=O)[C@@H](N)CCCCN)[C@@H](C)O)C(=O)N[C@@H](CCCNC(=N)N)C(=O)N[C@@H](CCCCNC(=O)c1ccco1)C(N)=O` [Compound 25] (H-KQTARK(2Furoyl)-NH2; N-terminus and C-terminus assumed) registered an IC50 at AF9 YEATS domain [1] of 460 nM.

With `CC(C)C[C@H](NC(=O)[C@@H](NC(=O)[C@H](CCC(N)=O)NC(=O)OCc1ccccc1)[C@@H](C)O)C(=O)N[C@@H](CCCNC(=N)N)C(=O)N[C@@H](CCCCNC(=O)c1ccco1)C(N)=O` [Compound 47] (Cbz-QTLRK(2Furoyl)-NH2; N-terminus and C-terminus assumed), at AF9 YEATS domain [1] (listed as A7-L), the “preliminary screening of competitors: inhibitory activity on AF9 YEATS domain” value was “comparable results; also recorded: comparable inhibitory activities”.

For `C[C@@H](O)[C@H](NC(=O)[C@H](CCC(N)=O)NC(=O)OCc1ccccc1)C(=O)N[C@@H](Cc1c[nH]c2ccccc12)C(=O)N[C@@H](CCCNC(=N)N)C(=O)N[C@@H](CCCCNC(=O)c1ccco1)C(N)=O` [Compound 49] (Cbz-QTWRK(2Furoyl)-NH2; N-terminus and C-terminus assumed), at AF9 YEATS domain [1] (listed as A7-W), the “preliminary screening of competitors: inhibitory activity on AF9 YEATS domain” value is “comparable results; also recorded: comparable inhibitory activities”.

With `C[C@H](NC(=O)[C@H](C)NC(=O)[C@H](CCC(N)=O)NC(=O)OCc1ccccc1)C(=O)N[C@@H](CCCNC(=N)N)C(=O)N[C@@H](CCCCNC(=O)c1ccco1)C(N)=O` [Compound 53] (Cbz-QAARK(2Furoyl)-NH2; N-terminus and C-terminus assumed), the “preliminary screening of competitors: inhibitory activity on AF9 YEATS domain” value at AF9 YEATS domain [1] is “comparable inhibitory activities”.

As for `C[C@H](NC(=O)[C@H](CO)NC(=O)[C@H](CCC(N)=O)NC(=O)OCc1ccccc1)C(=O)N[C@@H](CCCNC(=N)N)C(=O)N[C@@H](CCCCNC(=O)c1ccco1)C(N)=O` [Compound 55] (Cbz-QSARK(2Furoyl)-NH2; N-terminus and C-terminus assumed), the “preliminary screening of competitors: inhibitory activity on AF9 YEATS domain” value on AF9 YEATS domain [1] was “comparable inhibitory activities”.

As to `C[C@H](NC(=O)[C@@H](NC(=O)[C@H](CCC(N)=O)NC(=O)Cc1ccc2ccccc2c1)[C@@H](C)O)C(=O)N[C@@H](CCCNC(=N)N)C(=O)N[C@@H](CCCCNC(=O)c1ccco1)C(N)=O` [Compound 74], the IC50 at AF9 YEATS domain [1] is 226 nM. In addition, the “preliminary screening of competitors: inhibitory activity on AF9 YEATS domain” value at AF9 YEATS domain [1] (listed as Cbz-4) is reported as “comparable binding affinity; also recorded: comparable inhibitory activities”.

As for `C[C@@H]1NC(=O)[C@H]([C@H](C)O)NC(=O)[C@@H](NC(=O)OCc2ccccc2)CCCCNC(=N)NCCC[C@H](C(=O)N[C@@H](CCCCNC(=O)c2ccco2)C(N)=O)NC1=O` [Compound 78], the IC50 at AF9 YEATS domain [1] turned out to be 1800 nM; at ENL YEATS domain, 43600 nM.

For `C/C=C/C(=O)NCCCC[C@H](NC(=O)[C@H](CCCNC(=N)N)NC(=O)[C@H](C)NC(=O)[C@@H](NC(=O)[C@H](CCC(N)=O)NC(=O)[C@@H](N)CCCCN)[C@@H](C)O)C(=O)N[C@@H](CO)C(=O)N[C@H](C(=O)NCC(=O)NCC(N)=O)[C@@H](C)O` [Compound 85, reference compound] (H-KQTARK(Crotonyl(E))STGG-NH2; N-terminus and C-terminus assumed), the concentration for half-maximal inhibition (IC50) on AF9 YEATS domain [1] worked out at 6000 nM. On AF9 YEATS domain [2], the “N (sites)” value stood at 0.96 ± 0.02 sites, the ΔS was −17.8 cal/mol/deg and the ΔH was -11.92 ± 0.423 kcal/mol.

Take `C[C@H](NC(=O)[C@@H](NC(=O)[C@H](CCC(N)=O)NC(=O)OCc1ccccc1)[C@@H](C)O)C(=O)N[C@@H](CCCNC(=N)N)C(=O)N[C@@H](CCCCNC(=O)c1ccco1)C(N)=O` [peptide control]: the half-maximal inhibitory concentration (IC50) on AF9 YEATS domain [1] came to 189 nM.

The record behind these values is patent US11512111B2, “Yeats inhibitors and methods of use thereof” (The University of Hong Kong, priority 2017, dated 2022).
